# Assay results: ChEMBL document CHEMBL3992556, “5-Ethynylarylnaphthalimides as antitumor agents: Synthesis and biological evaluation” (Bioorg Med Chem, 2017)
# Activity calls are given as the source filed them. The calls are words filed in the database; no cut-off is given here.
# Key:
# HL-60 = assay: Antiproliferative activity against human HL60 cells after 48 hrs by MTT assay; type: functional, cell-based; details: HL-60, 48 h
# [1] = target: DNA topoisomerase 2-alpha (Homo sapiens) (UniProt P11388); assay: Inhibition of human topoisomerase-2 alpha assessed as reduction in relaxation of supercoiled pRYG DNA at 100 uM after 30 min by agarose gel electrophoresis
# HEL = assay: Antiproliferative activity against human HEL cells after 48 hrs by MTT assay; type: functional, cell-based
# SK-BR-3 = assay: Antiproliferative activity against human SK-BR-3 cells after 48 hrs by MTT assay; type: functional, cell-based; details: SK-BR-3, 48 h
# Saccharomyces cerevisiae [2] = assay: Induction of DNA damage in Saccharomyces cerevisiae FM588 expressing rad52 gene assessed as growth inhibition at 5 to 100 uM after 24 hrs; type: functional
# Saccharomyces cerevisiae [3] = assay: Induction of DNA damage in Saccharomyces cerevisiae FM888 harboring rad52 deletion mutant assessed as growth inhibition at 5 to 100 uM after 24 hrs; type: functional
# [4] = target: DNA topoisomerase 2-alpha (Homo sapiens) (UniProt P11388); assay: Poison activity at human topoisomerase-2 alpha assessed as increase in supercoiled pRYG DNA cleavage at 100 uM after 10 min
# Sequence of DNA topoisomerase 2-alpha (Homo sapiens) (P11388 whole entry): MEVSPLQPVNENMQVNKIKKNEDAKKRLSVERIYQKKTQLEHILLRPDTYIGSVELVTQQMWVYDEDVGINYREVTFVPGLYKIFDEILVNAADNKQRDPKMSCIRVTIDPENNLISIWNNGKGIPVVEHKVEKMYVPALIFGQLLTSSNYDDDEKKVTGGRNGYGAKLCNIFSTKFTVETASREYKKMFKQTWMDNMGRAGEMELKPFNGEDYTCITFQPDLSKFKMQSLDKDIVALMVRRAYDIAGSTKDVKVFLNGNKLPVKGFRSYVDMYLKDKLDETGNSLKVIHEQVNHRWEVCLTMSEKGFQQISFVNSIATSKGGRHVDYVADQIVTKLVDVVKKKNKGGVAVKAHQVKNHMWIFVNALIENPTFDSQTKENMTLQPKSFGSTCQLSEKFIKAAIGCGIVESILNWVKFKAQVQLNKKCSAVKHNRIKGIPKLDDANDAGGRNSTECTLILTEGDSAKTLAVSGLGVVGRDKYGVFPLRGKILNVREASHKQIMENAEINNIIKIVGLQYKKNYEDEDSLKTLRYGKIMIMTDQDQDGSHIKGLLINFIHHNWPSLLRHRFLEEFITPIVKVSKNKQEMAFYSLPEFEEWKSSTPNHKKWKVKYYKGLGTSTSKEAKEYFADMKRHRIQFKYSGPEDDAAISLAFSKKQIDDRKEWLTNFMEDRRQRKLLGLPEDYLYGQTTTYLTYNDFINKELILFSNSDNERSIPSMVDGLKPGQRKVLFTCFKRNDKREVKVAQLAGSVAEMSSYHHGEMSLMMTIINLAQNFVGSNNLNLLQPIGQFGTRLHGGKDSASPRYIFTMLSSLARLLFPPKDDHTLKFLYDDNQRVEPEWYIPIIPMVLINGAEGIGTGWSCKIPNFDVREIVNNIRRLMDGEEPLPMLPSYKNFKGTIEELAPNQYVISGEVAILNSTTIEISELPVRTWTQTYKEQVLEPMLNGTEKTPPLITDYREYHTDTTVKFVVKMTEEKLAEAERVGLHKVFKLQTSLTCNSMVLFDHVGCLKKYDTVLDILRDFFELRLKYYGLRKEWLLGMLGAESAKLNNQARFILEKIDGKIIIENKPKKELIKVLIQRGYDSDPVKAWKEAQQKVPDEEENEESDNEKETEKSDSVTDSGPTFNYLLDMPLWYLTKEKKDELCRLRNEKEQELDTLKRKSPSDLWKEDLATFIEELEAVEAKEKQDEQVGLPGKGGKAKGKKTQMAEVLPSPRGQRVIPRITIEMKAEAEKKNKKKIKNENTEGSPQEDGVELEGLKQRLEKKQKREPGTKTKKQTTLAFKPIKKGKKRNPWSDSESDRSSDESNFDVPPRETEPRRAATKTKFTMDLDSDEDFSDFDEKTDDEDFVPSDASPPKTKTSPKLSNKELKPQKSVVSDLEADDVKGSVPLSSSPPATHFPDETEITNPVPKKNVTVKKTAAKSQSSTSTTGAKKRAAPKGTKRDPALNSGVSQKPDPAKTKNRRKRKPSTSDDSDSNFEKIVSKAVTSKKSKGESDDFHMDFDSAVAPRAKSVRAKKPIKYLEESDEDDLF
IC50 (HL-60) [µM],Topoisomerase 2-alpha inhibition (active/not active) [1],IC50 (SK-BR-3) [µM],Compound,IC50 (HEL) [µM],Activity (Saccharomyces cerevisiae [2]),Activity (Saccharomyces cerevisiae [3]),Activity [4]
4.6,Active,4.6,CN(C)CCN1C(=O)c2cccc3cc(C#Cc4ccccc4)cc(c23)C1=O,1.4,Active,Active,–
1.1,–,2.1,COc1ccc(C#Cc2cc3c4c(cccc4c2)C(=O)N(CCN(C)C)C3=O)cc1,2,Active,Active,–
–,–,–,COc1cc([C@@H]2c3cc4c(cc3[C@@H](O[C@@H]3O[C@@H]5CO[C@@H](C)O[C@H]5[C@H](O)[C@H]3O)[C@H]3COC(=O)[C@H]23)OCO4)cc(OC)c1O,–,–,–,Active
3.5,Active,9.6,CN(C)CCN1C(=O)c2cccc3cc(C#Cc4ccoc4)cc(c23)C1=O,5.6,Active,Active,–
5.4,Active,> 10,CN(C)CCN1C(=O)c2cccc3cc(C#Cc4ccsc4)cc(c23)C1=O,5,Active,Active,Active
5.7,–,2.1,CN(C)CCN1C(=O)c2cccc3cc(C#Cc4ccc(O)cc4)cc(c23)C1=O,13.1,inactive,inactive,–
13.6,–,> 10,CN(C)CCN1C(=O)c2cccc3cc(C#Cc4cccc([N+](=O)[O-])c4)cc(c23)C1=O,21.7,Active,Active,–
1,–,2,COc1cccc(C#Cc2cc3c4c(cccc4c2)C(=O)N(CCN(C)C)C3=O)c1,1,Active,Active,–
10,–,> 10,C#Cc1cc2c3c(cccc3c1)C(=O)N(CCN(C)C)C2=O,8.1,Active,Active,–
2.3,inactive,0.1,CN(C)CCN1C(=O)c2cccc3cc(C#Cc4cccc(C(F)(F)F)c4)cc(c23)C1=O,2.2,Active,Active,–
10.2,–,> 30,CN(C)CCN1C(=O)c2cccc3cc(C#Cc4cccc(O)c4)cc(c23)C1=O,1.2,Active,Active,–

Compound,IC50 (HL-60) [µM],Topoisomerase 2-alpha inhibition (active/not active) [1],IC50 (SK-BR-3) [µM],IC50 (HEL) [µM],Activity (Saccharomyces cerevisiae [2]),Activity (Saccharomyces cerevisiae [3]),Activity [4]
CN(C)CCN1C(=O)c2cccc3cc(N)cc(c23)C1=O [AMONAFIDE],3.4,–,–,4,–,–,–
